Test results taken from ChEMBL document CHEMBL1130503, “Synthesis and antibacterial activity of some thio trinems” (Bioorg Med Chem Lett, 1997).
Values after ≈ are worked out from the molar mass of the structure shown.

What was measured:
Bacteroides fragilis = test: The compound was tested in vitro for the antibacterial activity against Bacteroides fragilis 2017 strain, activity expressed as MIC; assay type: functional
Clostridium perfringens = test: The compound was tested in vitro for the antibacterial activity against Clostridium perfringens 615E strain, activity expressed as MIC; assay type: functional
Escherichia coli [1] = test: The compound was tested in vitro for the antibacterial activity against Escherichia coli 1919 beta-lactamase producing strain, activity expressed as MIC; assay type: functional
Staphylococcus aureus [2] = test: The compound was tested in vitro for the antibacterial activity against Staphylococcus aureus 663E strain, activity expressed as MIC; assay type: functional
Staphylococcus aureus [3] = test: The compound was tested in vitro for the antibacterial activity against Staphylococcus aureus 853E beta-lactamase producing strain, activity expressed as MIC; assay type: functional
Escherichia coli [4] = test: The compound was tested in vitro for the antibacterial activity against Escherichia coli 1850E strain, activity expressed as MIC.; assay type: functional
[5] = tested on: renal dehydropeptidase I (DHP-I); test: Tested for Biological half life in human plasma (stability to human renal dehydropeptidase I,DHP-I).; assay type: ADME, cell-free
[6] = tested on: renal dehydropeptidase I (DHP-I); test: Biological half life in human plasma (stability to human renal dehydropeptidase I,DHP-I).; assay type: ADME, cell-free
[7] = Clostridium perfringens, read-out: MIC

SMILES | MIC (Bacteroides fragilis; Bacteroides fragilis) | MIC (Clostridium perfringens; [7]) | MIC (Escherichia coli [1]; Escherichia coli) | MIC (Staphylococcus aureus [2]; Staphylococcus aureus) | MIC (Staphylococcus aureus [3]; Staphylococcus aureus) | MIC (Escherichia coli [4]; Escherichia coli) | half-life [5] | half-life [6] | MIC (Bacteroides fragilis) | MIC (Clostridium perfringens) | MIC (Escherichia coli [1]) | MIC (Staphylococcus aureus [2]) | MIC (Staphylococcus aureus [3]) | MIC (Escherichia coli [4])
C[C@@H](O)[C@H]1C(=O)N2C(C(=O)[O-])=C3CCCS[C@@H]3[C@H]12.[Na+] | 0.25 µg/mL | 30 µg/mL | 0.5 µg/mL | 1 µg/mL | 1 µg/mL | 0.5 µg/mL | – | – | – | – | – | – | – | –
CS[C@H]1CCS[C@H]2C1=C(C(=O)[O-])N1C(=O)[C@H]([C@@H](C)O)[C@@H]21.[Na+] | 0.2 µg/mL | ≤ 10 µg/mL | 1 µg/mL | 0.2 µg/mL | 0.5 µg/mL | 2 µg/mL | 386 min | – | – | – | – | – | – | –
C=CCOC(=O)C1=C2SCCC[C@H]2[C@@H]2[C@@H]([C@@H](C)O)C(=O)N12 | – | 500 µg/mL (≈ 1620 µM) | 2 µg/mL (≈ 6.46 µM) | 1 µg/mL (≈ 3.23 µM) | 1 µg/mL (≈ 3.23 µM) | 1 µg/mL (≈ 3.23 µM) | 10 min | – | – | – | – | – | – | –
C[C@@H](O)[C@H]1C(=O)N2C(C(=O)[O-])=C3CCSCC3[C@H]12.[K+] (stereo in doubt; 15a) | – | – | 2 µg/mL | 1 µg/mL | 1 µg/mL | 4 µg/mL | – | 12 min | 0.12 µg/mL | 1000 µg/mL | – | – | – | –
C[C@@H](O)[C@H]1C(=O)N2C(C(=O)[O-])=C3CCSCC3[C@H]12.[K+] (stereo in doubt; 15b) | – | – | – | – | – | – | < 7 min | – | 0.5 µg/mL | 250 µg/mL | 1 µg/mL | 1 µg/mL | 0.5 µg/mL | 4 µg/mL
C[C@@H](O)[C@H]1C(=O)N2C(C(=O)O)=C(SCCNC=N)C[C@H]12 [IMIPENEM ANHYDROUS] | 0.12 µg/mL (≈ 0.401 µM) | 30 µg/mL (≈ 100 µM) | 0.5 µg/mL (≈ 1.67 µM) | 0.06 µg/mL (≈ 0.2 µM) | 0.12 µg/mL (≈ 0.401 µM) | 0.5 µg/mL (≈ 1.67 µM) | – | – | – | – | – | – | – | –
